In ChEMBL document CHEMBL1201862, “PubChem BioAssay data set” (2004):
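Grown in 96-well plates, cells were treated for 48 hours with each compound at five concentrations. Insufficient inhibition: endpoint recorded as highest concentration tested. GI50: concentration for 50% inhibition of growth.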 Activity calls are given as the source filed them. Rule as the data show it: active = GI50 up to about 1.1 µM and inactive = higher.

Assays:
Assay in all cases: NCI-60 cell line screen, 48 h
PC-3 = test system: PC-3
MOLT-4 = test system: MOLT-4
MDA-MB-435 = test system: MDA-MB-435
SF-295 = test system: SF-295
CAKI-1 = test system: CAKI-1
ACHN = test system: ACHN
U-251 = test system: U-251
RXF 393 = test system: RXF 393
OVCAR-3 = test system: OVCAR-3
A549 = test system: A549
CCRF-CEM = test system: CCRF-CEM
UO-31 = test system: UO-31
KM12 = test system: KM12
UACC-257 = test system: UACC-257
SF-268 = test system: SF-268
HT-29 = test system: HT-29
EKVX = test system: EKVX
786-0 = test system: 786-0
MDA-N = test system: MDA-N
SW-620 = test system: SW-620
OVCAR-8 = test system: OVCAR-8
SNB-19 = test system: SNB-19
RPMI-8226 = test system: RPMI-8226
NCI-H522 = test system: NCI-H522
M14 = test system: M14
SNB-75 = test system: SNB-75
HCT-15 = test system: HCT-15
HL-60 = test system: HL-60
HOP-62 = test system: HOP-62
A498 = test system: A498
SK-MEL-5 = test system: SK-MEL-5
DU-145 = test system: DU-145
SF-539 = test system: SF-539
Malme-3M = test system: Malme-3M
NCI-H23 = test system: NCI-H23
MCF7 = test system: MCF7
TK-10 = test system: TK-10
UACC-62 = test system: UACC-62
SK-OV-3 = test system: SK-OV-3
HCC 2998 = test system: HCC 2998
Hs-578T = test system: Hs-578T
OVCAR-5 = test system: OVCAR-5
COLO 205 = test system: COLO 205
SR = test system: SR
HOP-92 = test system: HOP-92
SN12C = test system: SN12C
NCI-H460 = test system: NCI-H460
OVCAR-4 = test system: OVCAR-4
SK-MEL-28 = test system: SK-MEL-28
HCT-116 = test system: HCT-116
BT-549 = test system: BT-549
IGROV-1 = test system: IGROV-1
K562 = test system: K562
LOX IMVI = test system: LOX IMVI
NCI/ADR-RES = test system: NCI/ADR-RES
NCI-H226 = test system: NCI-H226
SK-MEL-2 = test system: SK-MEL-2
MDA-MB-231 = test system: MDA-MB-231

Measured: GI50

O=C1CN(c2ccc(Cl)cc2)C(=O)CN1NCNN1CC(=O)N(c2ccc(Cl)cc2)CC1=O
> 100 µM: HCT-15
inactive: PC-3 > 100 µM | MOLT-4 > 100 µM | MDA-MB-435 > 100 µM | SF-295 > 100 µM | CAKI-1 > 100 µM | ACHN > 100 µM | U-251 > 100 µM | RXF 393 > 100 µM | OVCAR-3 > 100 µM | A549 > 100 µM | CCRF-CEM > 100 µM | UO-31 > 100 µM | KM12 > 100 µM | UACC-257 > 100 µM | SF-268 > 100 µM | HT-29 > 100 µM | EKVX > 100 µM | 786-0 > 100 µM | MDA-N > 100 µM | SW-620 > 100 µM | OVCAR-8 > 100 µM | SNB-19 > 100 µM | RPMI-8226 > 100 µM | NCI-H522 > 100 µM | M14 > 100 µM | SNB-75 > 100 µM | HL-60 > 100 µM | HOP-62 > 100 µM | A498 > 100 µM | SK-MEL-5 > 100 µM | DU-145 > 100 µM | SF-539 > 100 µM | Malme-3M > 100 µM | NCI-H23 > 100 µM | MCF7 > 100 µM | TK-10 > 100 µM | UACC-62 > 100 µM | SK-OV-3 > 100 µM | HCC 2998 > 100 µM | Hs-578T > 100 µM | OVCAR-5 > 100 µM | COLO 205 > 100 µM | SR > 100 µM | HOP-92 > 100 µM | SN12C > 100 µM | NCI-H460 > 100 µM | OVCAR-4 > 100 µM | SK-MEL-28 > 100 µM | HCT-116 > 100 µM | BT-549 > 100 µM | IGROV-1 > 100 µM

O=C1OC(CS(=O)(=O)c2ccccc2)CC1O (stereo unspecified)
> 100 µM: HCT-15
inactive: PC-3 > 100 µM | MOLT-4 > 100 µM | MDA-MB-435 > 100 µM | SF-295 > 100 µM | CAKI-1 > 100 µM | ACHN > 100 µM | U-251 > 100 µM | RXF 393 > 100 µM | OVCAR-3 > 100 µM | A549 > 100 µM | K562 > 100 µM | CCRF-CEM > 100 µM | UO-31 55.6 µM | KM12 > 100 µM | LOX IMVI > 100 µM | UACC-257 > 100 µM | SF-268 > 100 µM | HT-29 > 100 µM | EKVX > 100 µM | 786-0 > 100 µM | MDA-N > 100 µM | SW-620 > 100 µM | OVCAR-8 > 100 µM | SNB-19 > 100 µM | RPMI-8226 > 100 µM | NCI-H522 53.1 µM | M14 > 100 µM | NCI/ADR-RES > 100 µM | HOP-62 > 100 µM | NCI-H226 > 100 µM | A498 > 100 µM | SK-MEL-5 > 100 µM | DU-145 > 100 µM | SF-539 > 100 µM | Malme-3M 22.6 µM | SK-MEL-2 > 100 µM | NCI-H23 > 100 µM | MDA-MB-231 > 100 µM | MCF7 > 100 µM | TK-10 > 100 µM | UACC-62 41 µM | SK-OV-3 > 100 µM | HCC 2998 > 100 µM | OVCAR-5 > 100 µM | COLO 205 > 100 µM | SR > 100 µM | SN12C > 100 µM | NCI-H460 > 100 µM | OVCAR-4 > 100 µM | SK-MEL-28 > 100 µM | HCT-116 > 100 µM | BT-549 72.8 µM | IGROV-1 > 100 µM

COP(=O)(OC)C(N)CCSC (stereo unspecified)
> 100 µM: HCT-15
inactive: PC-3 > 100 µM | MOLT-4 > 100 µM | MDA-MB-435 > 100 µM | SF-295 > 100 µM | CAKI-1 > 100 µM | ACHN > 100 µM | U-251 > 100 µM | OVCAR-3 > 100 µM | A549 > 100 µM | K562 > 100 µM | CCRF-CEM > 100 µM | UO-31 > 100 µM | KM12 > 100 µM | LOX IMVI > 100 µM | UACC-257 > 100 µM | SF-268 > 100 µM | HT-29 > 100 µM | EKVX > 100 µM | 786-0 > 100 µM | MDA-N > 100 µM | SW-620 > 100 µM | OVCAR-8 > 100 µM | SNB-19 > 100 µM | RPMI-8226 > 100 µM | NCI-H522 > 100 µM | M14 > 100 µM | SNB-75 > 100 µM | NCI/ADR-RES > 100 µM | HL-60 > 100 µM | HOP-62 > 100 µM | NCI-H226 > 100 µM | SK-MEL-5 > 100 µM | Malme-3M > 100 µM | SK-MEL-2 > 100 µM | NCI-H23 > 100 µM | MCF7 > 100 µM | TK-10 > 100 µM | UACC-62 > 100 µM | SK-OV-3 > 100 µM | Hs-578T > 100 µM | OVCAR-5 > 100 µM | COLO 205 > 100 µM | SR > 100 µM | HOP-92 > 100 µM | SN12C > 100 µM | NCI-H460 > 100 µM | OVCAR-4 > 100 µM | SK-MEL-28 > 100 µM | HCT-116 > 100 µM | BT-549 > 100 µM | IGROV-1 > 100 µM

O=C(NC(Cc1ccccc1)(Cc1ccc(O)cn1)C(=O)O)c1ccccc1 (stereo unspecified)
> 100 µM: HCT-15
inactive: PC-3 76.4 µM | MOLT-4 46.8 µM | MDA-MB-435 > 100 µM | SF-295 92 µM | CAKI-1 > 100 µM | ACHN > 100 µM | U-251 > 100 µM | RXF 393 > 100 µM | OVCAR-3 63 µM | A549 > 100 µM | K562 > 100 µM | CCRF-CEM 25.4 µM | UO-31 86.5 µM | KM12 > 100 µM | LOX IMVI > 100 µM | UACC-257 > 100 µM | SF-268 > 100 µM | HT-29 42.2 µM | EKVX 55.6 µM | 786-0 > 100 µM | MDA-N > 100 µM | SW-620 > 100 µM | OVCAR-8 > 100 µM | SNB-19 > 100 µM | RPMI-8226 49.3 µM | NCI-H522 > 100 µM | M14 > 100 µM | SNB-75 69.2 µM | NCI/ADR-RES > 100 µM | HL-60 16.5 µM | HOP-62 > 100 µM | NCI-H226 83 µM | SK-MEL-5 > 100 µM | DU-145 > 100 µM | SF-539 > 100 µM | Malme-3M > 100 µM | SK-MEL-2 > 100 µM | NCI-H23 > 100 µM | MDA-MB-231 > 100 µM | TK-10 > 100 µM | UACC-62 > 100 µM | SK-OV-3 > 100 µM | HCC 2998 99.1 µM | Hs-578T > 100 µM | OVCAR-5 > 100 µM | COLO 205 84.7 µM | HOP-92 33.8 µM | NCI-H460 > 100 µM | OVCAR-4 98.6 µM | SK-MEL-28 > 100 µM | HCT-116 58.9 µM | BT-549 > 100 µM | IGROV-1 > 100 µM

O=c1c2c(sc3ccccc13)NCN(CCc1ccccc1)C2
inactive: PC-3 39.3 µM | MOLT-4 31.2 µM | MDA-MB-435 35.1 µM | SF-295 20.7 µM | CAKI-1 41.6 µM | ACHN 35.2 µM | U-251 36.8 µM | RXF 393 36.3 µM | OVCAR-3 73.3 µM | A549 49 µM | K562 19.7 µM | CCRF-CEM 43.9 µM | UO-31 33.7 µM | KM12 27.9 µM | LOX IMVI 33.5 µM | UACC-257 33.5 µM | HT-29 18.4 µM | EKVX 30.8 µM | 786-0 29.7 µM | MDA-N 25.6 µM | SW-620 31.8 µM | OVCAR-8 28.7 µM | SNB-19 30.8 µM | RPMI-8226 19.9 µM | NCI-H522 31.7 µM | M14 27 µM | SNB-75 16.6 µM | NCI/ADR-RES 20.7 µM | HL-60 > 100 µM | HOP-62 34.6 µM | NCI-H226 32 µM | A498 67.9 µM | SK-MEL-5 14.8 µM | DU-145 70.5 µM | SF-539 55.3 µM | Malme-3M 43.7 µM | SK-MEL-2 23.8 µM | NCI-H23 38.1 µM | MDA-MB-231 23.5 µM | MCF7 56.6 µM | UACC-62 34.2 µM | SK-OV-3 66.5 µM | HCC 2998 22.1 µM | OVCAR-5 81.5 µM | COLO 205 18.1 µM | SR 42.2 µM | HOP-92 53 µM | SN12C 41.8 µM | NCI-H460 32.7 µM | OVCAR-4 36.8 µM | SK-MEL-28 34.9 µM | HCT-116 23.4 µM | BT-549 23.1 µM | IGROV-1 24.7 µM
